{"source": "paper PMC9133015", "about": "(Nature Communications, 2022)", "assay_in_all_cases": "Kinase inhibitor specificity profiling (Reaction Biology Corporation)", "assay_type_in_all_cases": "biochemical", "parameters_in_all_cases": "% Enzyme Activity (relative to DMSO controls): concentration or dose not given beside the values", "key": {"[1]": {"target": "T1, panel of 370 protein kinases (Homo sapiens, UniProt P41743)", "T1 construct": "purchased Reaction Biology Corporation (assay service)", "T1 sequence (P41743 whole entry)": "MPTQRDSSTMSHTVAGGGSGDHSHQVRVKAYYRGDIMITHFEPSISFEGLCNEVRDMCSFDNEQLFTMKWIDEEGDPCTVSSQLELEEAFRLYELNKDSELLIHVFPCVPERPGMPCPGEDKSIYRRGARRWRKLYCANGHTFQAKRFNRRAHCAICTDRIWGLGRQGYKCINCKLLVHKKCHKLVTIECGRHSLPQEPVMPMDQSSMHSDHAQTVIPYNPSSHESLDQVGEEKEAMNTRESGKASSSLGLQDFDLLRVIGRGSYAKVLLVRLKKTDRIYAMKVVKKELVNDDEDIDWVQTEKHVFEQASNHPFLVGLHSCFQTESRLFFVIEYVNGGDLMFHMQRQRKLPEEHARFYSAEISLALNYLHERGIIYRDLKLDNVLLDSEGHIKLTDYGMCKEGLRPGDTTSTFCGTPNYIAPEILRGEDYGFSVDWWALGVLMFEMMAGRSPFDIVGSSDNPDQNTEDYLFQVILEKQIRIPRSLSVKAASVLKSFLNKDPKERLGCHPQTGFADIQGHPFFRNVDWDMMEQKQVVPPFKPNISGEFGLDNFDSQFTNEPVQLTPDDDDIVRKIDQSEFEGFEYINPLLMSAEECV", "conditions": "2 h, kinase PKCiota; read-out: % Enzyme Activity (relative to DMSO controls)"}, "[2]": {"target": "T2, panel of 370 protein kinases (Homo sapiens, UniProt P05771)", "T2 construct": "purchased Reaction Biology Corporation (assay service)", "conditions": "2 h, kinase PKCb1; read-out: % Enzyme Activity (relative to DMSO controls)"}, "[3]": {"target": "T3, panel of 370 protein kinases (Homo sapiens, UniProt Q12866)", "T3 construct": "purchased Reaction Biology Corporation (assay service)", "conditions": "2 h, kinase c-MER; read-out: % Enzyme Activity (relative to DMSO controls)"}, "[4]": {"target": "T4, panel of 370 protein kinases (Homo sapiens, UniProt O94921)", "T4 construct": "purchased Reaction Biology Corporation (assay service)", "T4 sequence (O94921 whole entry)": "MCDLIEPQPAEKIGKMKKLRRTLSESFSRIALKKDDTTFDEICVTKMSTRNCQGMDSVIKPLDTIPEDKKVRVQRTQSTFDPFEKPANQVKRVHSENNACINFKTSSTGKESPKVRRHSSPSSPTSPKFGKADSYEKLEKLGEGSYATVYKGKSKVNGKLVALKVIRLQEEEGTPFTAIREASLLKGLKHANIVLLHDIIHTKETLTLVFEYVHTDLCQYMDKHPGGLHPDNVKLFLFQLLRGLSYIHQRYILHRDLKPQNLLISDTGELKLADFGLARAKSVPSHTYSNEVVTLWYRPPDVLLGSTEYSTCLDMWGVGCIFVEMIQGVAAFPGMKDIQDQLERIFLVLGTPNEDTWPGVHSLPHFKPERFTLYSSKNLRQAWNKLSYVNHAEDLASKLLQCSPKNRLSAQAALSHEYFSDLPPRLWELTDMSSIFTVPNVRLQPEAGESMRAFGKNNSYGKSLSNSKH", "conditions": "kinase CDK14/cyclin Y (PFTK1)"}, "[5]": {"target": "T5, panel of 370 protein kinases (Homo sapiens, UniProt P49841)", "T5 construct": "purchased Reaction Biology Corporation (assay service)", "conditions": "2 h, kinase GSK3b; read-out: % Enzyme Activity (relative to DMSO controls)"}, "[6]": {"target": "T6, panel of 370 protein kinases (Homo sapiens, UniProt Q9Y5S2)", "T6 construct": "purchased Reaction Biology Corporation (assay service)", "T6 sequence (Q9Y5S2 whole entry)": "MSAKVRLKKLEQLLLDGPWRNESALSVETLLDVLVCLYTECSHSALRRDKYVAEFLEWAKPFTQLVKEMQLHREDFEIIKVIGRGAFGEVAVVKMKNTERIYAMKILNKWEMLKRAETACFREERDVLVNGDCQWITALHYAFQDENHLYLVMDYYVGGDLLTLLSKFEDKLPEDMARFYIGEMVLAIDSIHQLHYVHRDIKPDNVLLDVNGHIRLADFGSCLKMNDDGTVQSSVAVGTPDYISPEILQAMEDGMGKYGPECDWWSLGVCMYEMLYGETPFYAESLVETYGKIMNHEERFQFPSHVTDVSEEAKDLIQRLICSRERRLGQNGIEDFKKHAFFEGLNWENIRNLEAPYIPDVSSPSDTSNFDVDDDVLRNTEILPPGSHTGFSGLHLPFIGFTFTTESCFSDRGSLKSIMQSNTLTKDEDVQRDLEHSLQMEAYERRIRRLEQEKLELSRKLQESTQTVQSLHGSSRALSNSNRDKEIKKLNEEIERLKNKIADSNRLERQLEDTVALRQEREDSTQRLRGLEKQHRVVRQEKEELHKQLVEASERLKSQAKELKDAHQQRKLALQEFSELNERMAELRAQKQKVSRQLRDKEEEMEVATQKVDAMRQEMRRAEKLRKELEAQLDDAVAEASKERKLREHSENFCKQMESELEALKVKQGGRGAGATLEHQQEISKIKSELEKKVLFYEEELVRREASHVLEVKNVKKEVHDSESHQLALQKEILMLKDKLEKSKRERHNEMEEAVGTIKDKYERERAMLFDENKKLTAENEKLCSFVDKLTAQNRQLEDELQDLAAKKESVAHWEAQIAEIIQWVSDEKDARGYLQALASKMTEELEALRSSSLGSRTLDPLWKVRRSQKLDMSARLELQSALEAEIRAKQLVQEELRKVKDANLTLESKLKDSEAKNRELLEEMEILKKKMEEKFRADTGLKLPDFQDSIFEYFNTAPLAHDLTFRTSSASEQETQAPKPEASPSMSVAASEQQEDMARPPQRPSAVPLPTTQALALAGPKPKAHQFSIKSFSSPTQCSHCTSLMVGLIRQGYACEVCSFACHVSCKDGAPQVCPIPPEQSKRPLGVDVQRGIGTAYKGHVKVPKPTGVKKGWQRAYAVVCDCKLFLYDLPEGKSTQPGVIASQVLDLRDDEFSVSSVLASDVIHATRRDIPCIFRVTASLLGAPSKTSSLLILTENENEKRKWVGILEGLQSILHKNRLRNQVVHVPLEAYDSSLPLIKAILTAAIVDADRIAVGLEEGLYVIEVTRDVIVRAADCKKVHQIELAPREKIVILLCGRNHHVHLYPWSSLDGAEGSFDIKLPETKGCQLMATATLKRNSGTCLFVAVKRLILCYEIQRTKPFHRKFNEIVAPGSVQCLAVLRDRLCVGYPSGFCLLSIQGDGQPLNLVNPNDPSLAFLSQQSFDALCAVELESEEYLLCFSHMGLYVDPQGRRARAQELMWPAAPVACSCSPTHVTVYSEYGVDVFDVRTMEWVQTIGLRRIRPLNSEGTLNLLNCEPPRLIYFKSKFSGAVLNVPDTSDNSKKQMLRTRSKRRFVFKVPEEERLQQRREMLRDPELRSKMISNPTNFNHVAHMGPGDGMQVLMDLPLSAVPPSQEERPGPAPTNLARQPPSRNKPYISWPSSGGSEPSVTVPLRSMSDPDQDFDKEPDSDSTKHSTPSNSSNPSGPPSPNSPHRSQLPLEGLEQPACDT", "conditions": "2 h, kinase MRCKb/CDC42BPB; read-out: % Enzyme Activity (relative to DMSO controls)"}, "[7]": {"target": "T7, panel of 370 protein kinases (Homo sapiens, UniProt P54753)", "T7 construct": "purchased Reaction Biology Corporation (assay service)", "conditions": "2 h, kinase EPHB3; read-out: % Enzyme Activity (relative to DMSO controls)"}, "[8]": {"target": "T8, panel of 370 protein kinases (Homo sapiens, UniProt Q9NYL2)", "T8 construct": "purchased Reaction Biology Corporation (assay service)", "conditions": "2 h, kinase ZAK/MLTK; read-out: % Enzyme Activity (relative to DMSO controls)"}, "[9]": {"target": "T9, panel of 370 protein kinases (Homo sapiens, UniProt Q00537)", "T9 construct": "purchased Reaction Biology Corporation (assay service)", "T9 sequence (Q00537 whole entry)": "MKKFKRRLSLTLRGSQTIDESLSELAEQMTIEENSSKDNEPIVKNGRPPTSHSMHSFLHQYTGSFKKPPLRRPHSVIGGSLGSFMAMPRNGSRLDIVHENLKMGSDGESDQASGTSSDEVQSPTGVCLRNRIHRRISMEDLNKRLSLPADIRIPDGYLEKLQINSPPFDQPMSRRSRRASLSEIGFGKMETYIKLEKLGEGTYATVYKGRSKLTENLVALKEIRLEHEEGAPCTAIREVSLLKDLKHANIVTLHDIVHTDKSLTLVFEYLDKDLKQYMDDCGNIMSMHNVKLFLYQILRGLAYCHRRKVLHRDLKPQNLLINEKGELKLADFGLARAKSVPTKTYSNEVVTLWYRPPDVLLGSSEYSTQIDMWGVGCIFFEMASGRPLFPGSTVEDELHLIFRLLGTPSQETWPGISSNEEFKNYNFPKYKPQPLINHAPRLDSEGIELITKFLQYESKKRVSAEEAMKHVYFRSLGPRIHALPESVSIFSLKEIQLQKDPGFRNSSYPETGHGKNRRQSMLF", "conditions": "2 h, kinase CDK17/cyclin Y (PCTK2); read-out: % Enzyme Activity (relative to DMSO controls)"}, "[10]": {"target": "T10, panel of 370 protein kinases (Homo sapiens, UniProt P57059)", "T10 construct": "purchased Reaction Biology Corporation (assay service)", "T10 sequence (P57059 whole entry)": "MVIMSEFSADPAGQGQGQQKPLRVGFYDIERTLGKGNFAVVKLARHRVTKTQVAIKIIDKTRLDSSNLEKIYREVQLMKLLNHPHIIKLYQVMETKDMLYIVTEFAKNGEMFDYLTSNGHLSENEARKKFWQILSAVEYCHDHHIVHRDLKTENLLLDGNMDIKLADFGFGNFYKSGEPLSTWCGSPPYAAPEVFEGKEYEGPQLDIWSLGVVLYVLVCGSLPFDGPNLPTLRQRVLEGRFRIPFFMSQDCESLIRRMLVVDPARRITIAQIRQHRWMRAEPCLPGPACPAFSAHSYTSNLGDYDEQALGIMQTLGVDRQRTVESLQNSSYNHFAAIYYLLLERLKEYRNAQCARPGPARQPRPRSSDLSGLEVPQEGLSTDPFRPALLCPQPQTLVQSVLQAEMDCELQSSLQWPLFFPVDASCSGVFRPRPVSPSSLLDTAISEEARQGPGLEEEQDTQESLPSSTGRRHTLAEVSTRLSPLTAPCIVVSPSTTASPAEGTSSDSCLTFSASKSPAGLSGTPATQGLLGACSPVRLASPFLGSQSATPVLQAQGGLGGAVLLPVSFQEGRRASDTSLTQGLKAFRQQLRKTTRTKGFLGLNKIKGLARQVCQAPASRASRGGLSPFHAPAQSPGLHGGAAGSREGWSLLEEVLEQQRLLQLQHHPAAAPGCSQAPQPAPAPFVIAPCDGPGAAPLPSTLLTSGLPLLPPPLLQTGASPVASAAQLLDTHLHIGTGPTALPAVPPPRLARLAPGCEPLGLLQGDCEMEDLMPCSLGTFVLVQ", "conditions": "kinase SIK1"}, "[11]": {"target": "T11, panel of 370 protein kinases (Homo sapiens, UniProt O15530)", "T11 construct": "purchased Reaction Biology Corporation (assay service)", "conditions": "2 h, kinase PDK1/PDPK1; read-out: % Enzyme Activity (relative to DMSO controls)"}, "[12]": {"target": "T12, panel of 370 protein kinases (Homo sapiens, UniProt Q8IVT5)", "T12 construct": "purchased Reaction Biology Corporation (assay service)", "conditions": "2 h, kinase KSR1; read-out: % Enzyme Activity (relative to DMSO controls)"}, "[13]": {"target": "T13, panel of 370 protein kinases (Homo sapiens, UniProt O75676)", "T13 construct": "purchased Reaction Biology Corporation (assay service)", "conditions": "2 h, kinase MSK2/RPS6KA4; read-out: % Enzyme Activity (relative to DMSO controls)"}, "[14]": {"target": "T14, panel of 370 protein kinases (Homo sapiens, UniProt P53671)", "T14 construct": "purchased Reaction Biology Corporation (assay service)", "conditions": "2 h, kinase LIMK2; read-out: % Enzyme Activity (relative to DMSO controls)"}, "[15]": {"target": "T15, panel of 370 protein kinases (Homo sapiens, UniProt P42684)", "T15 construct": "purchased Reaction Biology Corporation (assay service)", "conditions": "2 h, kinase ABL2/ARG; read-out: % Enzyme Activity (relative to DMSO controls)"}, "[16]": {"target": "T16, panel of 370 protein kinases (Homo sapiens, UniProt Q8TDX7)", "T16 construct": "purchased Reaction Biology Corporation (assay service)", "conditions": "2 h, kinase NEK7; read-out: % Enzyme Activity (relative to DMSO controls)"}, "[17]": {"target": "T17, panel of 370 protein kinases (Homo sapiens, UniProt Q15208)", "T17 construct": "purchased Reaction Biology Corporation (assay service)", "conditions": "2 h, kinase STK38/NDR1; read-out: % Enzyme Activity (relative to DMSO controls)"}, "[18]": {"target": "T18, panel of 370 protein kinases (Homo sapiens, UniProt Q96RG2)", "T18 construct": "purchased Reaction Biology Corporation (assay service)", "conditions": "2 h, kinase PASK; read-out: % Enzyme Activity (relative to DMSO controls)"}, "[19]": {"target": "T19, panel of 370 protein kinases (Homo sapiens, UniProt Q13873)", "T19 construct": "purchased Reaction Biology Corporation (assay service)", "T19 sequence (Q13873 27-1038)": "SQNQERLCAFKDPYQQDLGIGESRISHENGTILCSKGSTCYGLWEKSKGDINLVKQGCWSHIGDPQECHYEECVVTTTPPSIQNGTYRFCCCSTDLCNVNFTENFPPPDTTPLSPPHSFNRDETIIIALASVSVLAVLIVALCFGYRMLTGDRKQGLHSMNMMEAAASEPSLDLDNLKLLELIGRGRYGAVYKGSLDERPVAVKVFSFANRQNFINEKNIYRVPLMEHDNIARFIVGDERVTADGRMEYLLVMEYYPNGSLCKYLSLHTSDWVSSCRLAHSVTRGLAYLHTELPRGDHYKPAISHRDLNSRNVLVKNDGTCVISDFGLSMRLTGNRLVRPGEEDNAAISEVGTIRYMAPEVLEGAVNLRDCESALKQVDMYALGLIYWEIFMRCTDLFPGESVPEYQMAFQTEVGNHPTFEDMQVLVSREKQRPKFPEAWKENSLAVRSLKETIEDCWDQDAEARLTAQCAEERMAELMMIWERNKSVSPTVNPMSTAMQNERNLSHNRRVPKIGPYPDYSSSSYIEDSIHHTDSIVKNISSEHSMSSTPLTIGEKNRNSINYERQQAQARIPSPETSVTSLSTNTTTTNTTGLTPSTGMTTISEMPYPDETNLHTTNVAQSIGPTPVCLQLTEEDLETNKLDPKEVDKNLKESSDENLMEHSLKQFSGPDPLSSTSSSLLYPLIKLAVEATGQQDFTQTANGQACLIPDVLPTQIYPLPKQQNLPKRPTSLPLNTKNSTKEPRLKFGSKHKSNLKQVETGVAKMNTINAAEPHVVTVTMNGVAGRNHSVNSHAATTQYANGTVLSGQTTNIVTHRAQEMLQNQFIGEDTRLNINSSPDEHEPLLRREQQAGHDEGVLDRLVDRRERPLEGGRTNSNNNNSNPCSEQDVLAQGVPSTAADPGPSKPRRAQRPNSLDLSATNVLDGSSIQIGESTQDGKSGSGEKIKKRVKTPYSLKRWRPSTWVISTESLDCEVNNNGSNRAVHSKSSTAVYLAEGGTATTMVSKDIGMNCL", "conditions": "kinase BMPR2"}, "[20]": {"target": "T20, panel of 370 protein kinases (Homo sapiens, UniProt P51956)", "T20 construct": "purchased Reaction Biology Corporation (assay service)", "conditions": "2 h, kinase NEK3; read-out: % Enzyme Activity (relative to DMSO controls)"}, "[21]": {"target": "T21, panel of 370 protein kinases (Homo sapiens, UniProt Q8IYT8)", "T21 construct": "purchased Reaction Biology Corporation (assay service)", "conditions": "2 h, kinase ULK2; read-out: % Enzyme Activity (relative to DMSO controls)"}}, "note": "“And” between values parts separate entries of the source, which are not always exact repeats. Identical values can stand only once.", "data": [{"smiles": "CCN1CCN(C(=O)c2ccc(Nc3ncc(F)c(-c4ccc5nc(N(C)C)sc5c4)n3)nc2)CC1", "note": "[YK-2-69]", "values": [{"measurement": "remaining activity at 1 µM", "setting": "[1]", "result": 84.8, "unit": "%"}, {"measurement": "remaining activity at 1 µM", "setting": "[2]", "result": 101, "unit": "%"}, {"measurement": "remaining activity at 1 µM", "setting": "[3]", "result": 96.8, "unit": "%"}, {"measurement": "% Enzyme Activity (relative to DMSO controls)", "setting": "[4]", "result": "116.35% and 115.11%"}, {"measurement": "remaining activity at 1 µM", "setting": "[5]", "result": 60.8, "unit": "%"}, {"measurement": "remaining activity at 1 µM", "setting": "[6]", "result": 105, "unit": "%"}, {"measurement": "remaining activity at 1 µM", "setting": "[7]", "result": 112, "unit": "%"}, {"measurement": "remaining activity at 1 µM", "setting": "[8]", "result": 107, "unit": "%"}, {"measurement": "remaining activity at 1 µM", "setting": "[9]", "result": 99.2, "unit": "%"}, {"measurement": "% Enzyme Activity (relative to DMSO controls)", "setting": "[10]", "result": "99.48% and 98.60%"}, {"measurement": "remaining activity at 1 µM", "setting": "[11]", "result": 100, "unit": "%"}, {"measurement": "remaining activity at 1 µM", "setting": "[12]", "result": 94.3, "unit": "%"}, {"measurement": "remaining activity at 1 µM", "setting": "[13]", "result": 96.2, "unit": "%"}, {"measurement": "remaining activity at 1 µM", "setting": "[14]", "result": 95, "unit": "%"}, {"measurement": "remaining activity at 1 µM", "setting": "[15]", "result": 91.2, "unit": "%"}, {"measurement": "remaining activity at 1 µM", "setting": "[16]", "result": 96.7, "unit": "%"}, {"measurement": "remaining activity at 1 µM", "setting": "[17]", "result": 85.5, "unit": "%"}, {"measurement": "remaining activity at 1 µM", "setting": "[18]", "result": 98.3, "unit": "%"}, {"measurement": "% Enzyme Activity (relative to DMSO controls)", "setting": "[19]", "result": "80.68% and 76.25%"}, {"measurement": "remaining activity at 1 µM", "setting": "[20]", "result": 73.1, "unit": "%"}, {"measurement": "remaining activity at 1 µM", "setting": "[21]", "result": 97.9, "unit": "%"}]}]}
